Results on 16 molecules are retold here after ChEMBL document CHEMBL1127476, “3-substituted thieno[2,3-b][1,4]thiazine-6-sulfonamides. A novel class of topically active carbonic anhydrase inhibitors” (J Med Chem, 1994).

Structures are written as SMILES. In brackets after ≈: the same amount, converted by molar mass.

One series is described as follows: physchem. The note with it: pH 5.2 buffer, pH 5.2, Solubility.
A short description of series [1]: The pKa value in 30% EtOH/H2O. The series is classed as physicochemical.
For series [2], the species on record is Oryctolagus cuniculus.
Description: Change in intraocular pressure (IOP) was measured in the normotensive pigmented rabbit
The species entered for series [3] is Oryctolagus cuniculus. The source holds these as a separate data set.
Description: Change in intraocular pressure (IOP) was measured in the normotensive pigmented rabbit in presence of MK-927
The target in series [4] is T1, Carbonic anhydrase 2 (Homo sapiens, UniProt P00918).
Description: Tested for ability to compete with dansylamide for binding to human erythrocyte carbonic-anhydrase-II (HCA-II)
In series [5] the target is T1, Carbonic anhydrase 2. This is another data set of the same source.
Description: Tested for ability to inhibit human erythrocyte carbonic-anhydrase-II- (HCA II) catalyzed carbon dioxide hydration
The species entered for series [6] is Oryctolagus cuniculus. This is another data set of the same source.
Description: Reduction of the elevated intraocular pressure (IOP) in alpha-chymotrypsin treated albino rabbit
The conditions of series [7]: buffer, pH 5.2.
Description: Solubility in pH 5.2 buffer

Description for physchem: Solubility in pH 5.2 buffer

On to `COCCOCCN(CCOC)CCC1CNc2cc(S(N)(=O)=O)sc2S1(=O)=O` (configuration not stated), for which the solubility in “physchem” came to 11800 µg/mL (≈ 25 mM). The pKa in series [1] came to 6.55. Also, the “Delta IOP” value in the series listed under Oryctolagus cuniculus [2] is recorded as -1.6 mmHg; in the series filed under Oryctolagus cuniculus [3], -5.3 mmHg; in the series listed under Oryctolagus cuniculus [6], 6 mmHg. This molecule also had a Ki at Carbonic anhydrase 2 [4] of 4.14 nM. The molecule further gave an IC50 against Carbonic anhydrase 2 [5] of 1.45 nM.
Turning to `NS(=O)(=O)c1cc2c(s1)SCC(=O)N2`, the Ki at Carbonic anhydrase 2 [4] amounted to 24 nM. This molecule also registered an IC50 against Carbonic anhydrase 2 [5] of 12.8 nM.
`NS(=O)(=O)c1cc2c(s1)S(=O)(=O)CC(=O)N2` showed a solubility in the series “physchem” of 600 µg/mL (≈ 2.13 mM). For the same molecule, the pKa in series [1] was 7.43. Also, affinity on Carbonic anhydrase 2 [4] was put at a Ki of 2.9 nM. In addition, half-maximal inhibition at Carbonic anhydrase 2 [5] (IC50) was put at 3.7 nM.
For `COCCOCCN(CCOC)C(=O)CC1C(=O)Nc2cc(S(N)(=O)=O)sc2S1(=O)=O` (configuration not stated), affinity on Carbonic anhydrase 2 [4] was put at a Ki of 3.6 nM. On Carbonic anhydrase 2 [5], the half-inhibitory concentration (IC50) was determined as 2.18 nM.
As for `COCCN(CCOC)CCC1CNc2cc(S(N)(=O)=O)sc2S1(=O)=O` (configuration not stated), the solubility in “physchem” was > 6700 µg/mL. The pKa in series [1] came out at 6.4. Also, the figures for the “Delta IOP” value in the series filed under Oryctolagus cuniculus [2], in the series listed under Oryctolagus cuniculus [3] and in the series filed under Oryctolagus cuniculus [6] were -4.1 mmHg, -5.1 mmHg and 4 mmHg, respectively. This molecule yielded a Ki on Carbonic anhydrase 2 [4] of 0.97 nM. The IC50 against Carbonic anhydrase 2 [5] was 2.14 nM.
Take `NS(=O)(=O)c1cc2c(s1)SC(CCO)CN2` (configuration not stated): the solubility in “physchem” came out at 640 µg/mL (≈ 2.28 mM). Moreover, in series [1], the pKa was 9.62.
In the series “physchem”, `NS(=O)(=O)c1cc2c(s1)SC(CC(=O)O)C(=O)N2` (configuration not stated) showed a solubility of 2400 µg/mL (≈ 7.78 mM). The pKa in series [1] is 4.3. The molecule also showed a Ki on Carbonic anhydrase 2 [4] of 47.5 nM.
Consider `NS(=O)(=O)c1cc2c(s1)S(=O)(=O)C1(CC1)CN2`, for which the solubility in “physchem” turned out to be 520 µg/mL (≈ 1.77 mM). For the same molecule, the pKa in series [1] was found to be 8.29. For the same molecule, on Carbonic anhydrase 2 [4], affinity was put at a Ki of 10.9 nM. Also, the IC50 against Carbonic anhydrase 2 [5] amounted to 2 nM.
Turning to `CC(C)CNC(=O)CC1Sc2sc(S(N)(=O)=O)cc2NC1=O` (configuration not stated), the concentration in solution in the series “physchem” (solubility) came to 30 µg/mL (≈ 0.0825 mM). The molecule also gave a pKa in series [1] of 3.65.
`NS(=O)(=O)c1cc2c(s1)S(=O)(=O)C(CCN1CCOCC1)CN2` (configuration not stated) showed a solubility in “physchem” of 2100 µg/mL (≈ 5.5 mM). Further, the pKa in series [1] was determined as 3.23. The “Delta IOP” value in the series listed under Oryctolagus cuniculus [2] is recorded as -2.8 mmHg; in the series filed under Oryctolagus cuniculus [3], -4.4 mmHg; in the series filed under Oryctolagus cuniculus [6], 5 mmHg.
With `CC(C)CN[C@H]1CCS(=O)(=O)c2sc(S(N)(=O)=O)cc21` (stereo in doubt; form 1) [SEZOLAMIDE], the solubility in series [7] is > 16 mg/mL.
In the case of `NS(=O)(=O)c1cc2c(s1)S(=O)(=O)C(CCO)CN2` (configuration not stated), the solubility in the series “physchem” was 4500 µg/mL (≈ 14.4 mM). For the same molecule, the pKa in series [1] came to 8.45. This molecule came in with a Ki at Carbonic anhydrase 2 [4] of 1.19 nM. Also, on Carbonic anhydrase 2 [5], 1.9 nM corresponded to half-maximal inhibition (IC50).
For `NS(=O)(=O)c1cc2c(s1)S(=O)(=O)CCN2`, in that order: 190 µg/mL (≈ 0.708 mM), 8.8, 3.36 nM and 2.46 nM.
In series [7], `CC(C)CN[C@H]1CCS(=O)(=O)c2sc(S(N)(=O)=O)cc21` (stereo in doubt; form 2) [SEZOLAMIDE] gave a solubility of 33 mg/mL (≈ 97.5 mM).
`CC(C)CNCCC1CNc2cc(S(N)(=O)=O)sc2S1(=O)=O` (configuration not stated) had a solubility in “physchem” of 24000 µg/mL (≈ 65.3 mM). In series [1], this molecule returned a pKa of 8.18. Further, the “Delta IOP” value is recorded as -2.1 mmHg in the series listed under Oryctolagus cuniculus [2], -6.2 mmHg in the series listed under Oryctolagus cuniculus [3] and -4.5 mmHg in the series filed under Oryctolagus cuniculus [6]. Besides, the Ki at Carbonic anhydrase 2 [4] was determined as 4.05 nM. Besides, the IC50 against Carbonic anhydrase 2 [5] was determined as 2.9 nM.
The molecule `COCCOCCN(CCOC)CCC1C(=O)Nc2cc(S(N)(=O)=O)sc2S1(=O)=O` (configuration not stated) showed a Ki at Carbonic anhydrase 2 [4] of 4.14 nM. For the same molecule, the IC50 against Carbonic anhydrase 2 [5] was 5.15 nM.

One may read the solubility as the concentration that dissolves in the medium under given conditions. Low values mean little dissolved substance, high ones much dissolved substance. The term pKa denotes the negative logarithm of the acid dissociation constant. A high value points to a group that holds its proton tightly. The term Ki denotes the dissociation constant of the complex between target and ligand, obtained from inhibition or displacement. One may read the IC50 as the midpoint of a concentration-inhibition curve. Low values mean inhibition by little substance, high ones a need for much substance.
